Entries after “also recorded” stand apart in the source; their conditions may differ.
Tests used:
[1] = tested on: IMR32 cells; test: MTT reduction assay, βA peptide-induced toxicity, IMR32 cells; format: cell-based, human
Experimental: (§1) The degree of βA insult was measured by 3-[4,5-dimethylthiazol-2-yl]-2,5-diphenyltetrazolium bromide (MTT) reduction assay. […] The detection of cell growth or cell death can be determined by observing the conversion of MTT to the colored product, MTT formazan, the concentration of which can be measured […] at 550 nm.
(§2) Cells were incubated in MTT solution (5 mg/ml) at 37° C. for 2 hours. During this time, cells were observed under a microscope every 15 min. Cells were incubated in Lysing buffer (100 μl) overnight at 37° C. Colorimetric determination of MTT reduction was made at 550 nm.
(§3) PC12 rat pheochromocytoma and IMR32 human neuroblastoma cells were obtained from the American Type Culture Collection (ATCC). HUVEC normal umbilical human vein endothelial cells were obtained from Clonetics (San Diego, Calif.). Cells were routinely cultured on a tissue culture plate (Corning, N.Y., N.Y.). PC12 cells were grown in high glucose Dulbecco's Modified Eagle Medium (DMEM), 10% horse serum, 5% fetal calf serum, and 1% penicillin/streptomycin. IMR32 cells were grown in 90% DMEM and 10% fetal calf serum with 1% penicillin/streptomycin. HUVEC cells were grown in EGM-2 Bullet Kit (Clonetics, San Diego, Calif.).

[2] = tested on: HUVEC cells; test: MTT reduction assay, βA peptide-induced toxicity, HUVEC cells; format: cell-based, human; details: Table 1, turmeric-derived natural product compounds
Experimental: as §1, §2, §3

[3] = Antioxidant assay, scavenging of DPPH free radicals; details: for Antioxidant activity (DPPH free radical scavenging), in words: optical density change of DPPH radicals at 515 nm
Experimental: Kim et al., Neurosci Lett 303, 57 (2001) and Barik et al., Free Radic Biol Med 39, 811 (2005).
Using an antioxidant assay, the antioxidant potency of the compounds of the invention was evaluated. 1,1-Diphenyl-2-picrylhydrazyl (DPPH) is known to generate stable free radicals in aqueous and ethanolic solutions. The ability of the compounds of the invention to scavenge these free radicals was measured by observing the optical density change of DPPH radicals at 515 nm. Kim et al., Neurosci Lett 303, 57 (2001) and Barik et al., Free Radic Biol Med 39, 811 (2005).
The samples were prepared in various concentrations (200, 20, 2.0, and 0.2 μg/ml) by serial dilution of a stock solution (5 mg/ml) and were tested by the following procedure. Reaction mixtures containing test compounds (dissolved in DMSO) and 300 μM DPPH ethanolic solution in 96-well microtiter plates were incubated at 37° C. for 30 min. and absorbance was measured at 515 nm. Percent inhibition by sample treatment was determined by comparison with a DMSO-treated […] control group. IC50 values were determined from percent inhibition by sample. IC50 values denote the concentration of the tested compound that was required to scavenge 50% of the DPPH free radicals.

[4] = tested on: primary cortical rat neuronal cells; test: Protection of primary cortical neuronal cells against βA peptide (1-42) insult; format: cell-based; details: compound at 5 μg/ml; βA peptide (1-42) 10 μg/ml
Experimental: as §2
Primary cortical rat neuronal cells were obtained in the following manner. Dissociated primary neuronal cell cultures were established from 18-day-old Sprague-Dawley rat fetuses. The pups were delivered by caesarean section while the dam was anesthetized with ether. Hippocampal tissue from embryonic day 18 Sprague-Dawley rat pups was dissected and then rinsed in cold Ca^2+/Mg^2+-free Hank's balanced salt solution supplemented with 20 mM HEPES, 4.2 mM sodium bicarbonate, 1 mM pyruvate, and 3 mg/ml bovine serum albumin (BSA). Following gentle trituration of the tissue with a constricted pipette in cold buffer, two volumes of 10% fetal bovine serum (FBS) in DMEM were added to the suspension. After the suspension settled for 2 minutes, the supernatant was collected and centrifuged for 2 min. at 200×g. The cell pellets were resuspended in serum-free DMEM (pH 7.3), supplemented with 2.4 mg/ml BSA and a modification of Brewer's […] defined components (with 250 nM vitamin B12 and without catalase, glutathione, and superoxide dismutase). Cells were plated at a density of 15,000 cells/cm^2 and grown at 37° C. After 24 hours of incubation to allow cell attachment, the serum-containing medium was replaced by defined medium with DMEM/F12 containing bovine transferrin (100 μg/ml), bovine insulin (5 μg/ml), putrescine (0.1 mM), progesterone (10 nM), sodium selenite (30 nM), sodium pyruvate (1 mM), and potassium bicarbonate (15 mM). Cells maintained for extended periods of time were fed twice a week by replacing ⅓ of the medium with fresh medium.

[5] = tested on: cells treated with βA peptide; test: Protection of cells from βA peptide insult, statements in words (MTT assay, cells not singled out); format: cell-based; details: for Protection of cells from βA peptide-induced toxicity, in words: MTT reduction assay, PC12, IMR32, HUVEC cells where named in the sentence; for Microscopic analysis of βA peptide treated cells (MTT formazan granules in the cytosole): synthesized curcuminoid compounds, compared with positive and negative control
Experimental: as §1, §2

[6] = tested on: PC12 cells; test: MTT reduction assay, βA peptide-induced toxicity, PC12 cells; format: cell-based, rat
Experimental: as §1, §2, §3
PC12 cells were cultured routinely on polystyrene-coated Corning tissue culture plates. […] The 96-well plates were coated with rat tail collagen (Boehringer Mannheim) in order to promote uniform PC12 cell attachment and growth.

[7] = Partition coefficient between water and octane alcohol (log P); format: physicochemical
Experimental: According to this example, the ability of the compounds of the invention to pass through the blood brain barrier was measured. The ability of compounds to cross the blood brain barrier is represented by the log of the partition coefficient (P) of a molecule of the invention between water and octane alcohol. […] Accordingly, the octane alcohol fraction contained more than 1000 times as much of the compounds as the water fraction. […] See Hau et al., Regul Toxicol Pharmacol 35, 273 (2002) and Salminen et al., J Pharm Biomed Anal 15, 469 (1997).

[8] = Table 1, turmeric-derived natural product compounds
[9] = Table 1, turmeric-derived natural product compounds, scavenging 50% of DPPH free radicals
[10] = Table 1, turmeric-derived natural product compounds, concentration for 50% cell viability
[11] = Table 2, synthesized curcuminoids
[12] = Table 2, synthesized curcuminoids, DPPH

Row | Compound | Anti-βA peptide(25-35) ED50 IMR32 [1, 8] | Anti-βA peptide(1-42) ED50 HUVEC [2] | Anti-βA peptide(25-35) ED50 HUVEC [2] | Antioxidant IC50 [3, 9] | Antioxidant activity (DPPH free radical scavenging), in words [3] | Protection of primary cortical neuronal cells against βA peptide (1-42) insult [4] | Protection of cells from βA peptide-induced toxicity, in words [5] | Anti-βA peptide(1-42) ED50 PC12 [6, 8] | Anti-βA peptide(25-35) ED50 PC12 [6, 10] | Anti-βA peptide(1-42) ED50 IMR32 [1, 11] | Anti-βA peptide(25-35) ED50 IMR32 [1, 11] | Antioxidant IC50 [3, 12] | logP [7] | Microscopic analysis of βA peptide treated cells (MTT formazan granules in the cytosole) [5] | Anti-βA peptide(1-42) ED50 PC12 [6, 11] | Anti-βA peptide(25-35) ED50 PC12 [6, 11]
1 | COc1cc(C=CC(=O)CC(=O)C=Cc2ccc(O)cc2)ccc1O [Compound 2, 1-(4-hydroxy-3-methoxyphenyl)-7-(4-hydroxyphenyl)-1,6-heptadiene-3,5-dione] | 4.0 µg/mL | 5.0 µg/mL | 4.5 µg/mL | 36.2 µg/mL | strong antioxidant activity | protected | protected | 5.0 µg/mL | 4.0 µg/mL | – | – | – | – | – | – | –
2 | O=C(C=Cc1ccc(O)cc1)CC(=O)C=Cc1ccc(O)cc1 [Compound 3, 1,7-bis(4-hydroxyphenyl)-1,6-heptadiene-3,5-dione] | 2.5 µg/mL | 2.0 µg/mL | 2.4 µg/mL | >200 µg/mL | significant antioxidant activity | protected | protected | 3.5 µg/mL | 2.0 µg/mL | 3.5 µg/mL | 3.0 µg/mL | 32.6 µg/mL | 3.1 | effectively protect | 4.5 µg/mL | 3.0 µg/mL
3 | O=C(C=Cc1ccc(O)cc1)CC(=O)CCc1ccc(O)cc1 [Compound 4, 1,7-bis(4-hydroxyphenyl)-1-heptene-3,5-dione] | 1.2 µg/mL | 1.0 µg/mL | 0.8 µg/mL | >200 µg/mL | – | protected | protected; also recorded: best protection | 1.0 µg/mL | 0.5 µg/mL | 2.0 µg/mL | 1.5 µg/mL | >200 µg/mL | – | effectively protect | 1.0 µg/mL | 0.5 µg/mL
4 | O=C(C=C(O)C=Cc1ccc(O)c(O)c1)CCc1ccc(O)cc1 [Compound 5] | 1.5 µg/mL | 1.5 µg/mL | 2.0 µg/mL | >200 µg/mL | – | protected | protected | 3.0 µg/mL | 2.5 µg/mL | – | – | – | – | – | – | –
5 | COc1cc(/C=C/C(=O)COC(=O)/C=C/c2ccc(O)c(OC)c2)ccc1O [Compound 6, 4″-(3′″-methoxy-4′″-hydroxyphenyl)-2″-oxo-3″-enebutanyl 3-(3′-methoxy-4′-hydroxyphenyl)propenoate] | 1.0 µg/mL | 1.0 µg/mL | 1.5 µg/mL | >200 µg/mL | – | protected | protected | 2.0 µg/mL | 1.0 µg/mL | – | – | – | – | – | – | –

— patent publication US7728043B2, “Methods for treatment of beta-amyloid protein-induced ocular disease” (priority 1999, dated 2010)
